In patent publication US6632799B2, “Injectable ready-to-use solutions containing an antitumor anthracycline glycoside” (Pharmacia & Upjohn Company, priority 1985, dated 2003):
Counter-ions that a name gives are not always drawn.

Legend:
[1] = Shelf-life (t 90%) forecast of doxorubicin.HCl 2 mg/ml sterile water solution adjusted to pH 3.0; type: physicochemical; details: for Kobs × 10^3: observed
Description: The Arrhenius equation for the degradation process was calculated from the Kobs obtained from the different temperatures taken in account for the testing (table 11).
Applying the equation, the rate constants for the pseudo-first order reactions at 4° C., 8° C., 15° C. and 27° C. were calculated, together with the expected t90% at these temperatures.

[2] = pH-stability profile at 55° C. of doxorubicin.HCl solutions in sterile water, 5% dextrose, 0.9% saline; type: physicochemical
[3] = sterile water pH 3.0, 15° C., Arrhenius
[4] = sterile water pH 3.0, 27° C., 8 days
[5] = sterile water pH 3.0, 27° C., 14 days
[6] = sterile water pH 3.0, 27° C., 28 days
[7] = sterile water pH 3.0, 27° C., 32 days
[8] = sterile water pH 3.0, 27° C., 60 days
[9] = sterile water pH 3.0, 27° C., 90 days
[10] = sterile water pH 3.0, 35° C., 4 days
[11] = sterile water pH 3.0, 35° C., 8 days
[12] = sterile water pH 3.0, 35° C., 14 days
[13] = sterile water pH 3.0, 35° C., 32 days
[14] = sterile water pH 3.0, 45° C., 4 days
[15] = sterile water pH 3.0, 45° C., 8 days
[16] = sterile water pH 3.0, 45° C., 28 days
[17] = sterile water pH 3.0, 55° C., 4 days
[18] = sterile water pH 3.0, 55° C., 32 days

COc1cccc2c1C(=O)c1c(O)c3c(c(O)c1C2=O)C[C@@](O)(C(=O)CO)C[C@@H]3O[C@H]1C[C@H](N)[C@H](O)[C@H](C)O1 [Doxorubicin.HCl, doxorubicin hydrochloride]
commercially meaningful shelf-life (t90% forecasts) ([1]; 2 mg/ml pH 3.0 aqueous solution): only if the product is stored in a refrigerator
K × 10^3 calculated ([1]; sterile water pH 3.0, 4° C., Arrhenius): 0.019 1/days
K × 10^3 calculated ([1]; sterile water pH 3.0, 8° C., Arrhenius): 0.038 1/days
K × 10^3 calculated [1, 3]: 0.130 1/days
t90% [1, 3]: 810 days
pH ([1]; sterile water pH 3.0, 27° C., 0 days): 3.00
Doxorubicin.HCl assay [1, 4]: 1.993 mg/mL
pH [1, 4]: 2.95
Doxorubicin.HCl assay [1, 5]: 1.988 mg/mL
pH [1, 5]: 2.94
Doxorubicin.HCl assay [1, 6]: 1.941 mg/mL
pH [1, 6]: 2.94
Doxorubicin.HCl assay [1, 7]: 1.962 mg/mL
pH [1, 7]: 2.95
Doxorubicin.HCl assay [1, 8]: 1.908 mg/mL
pH [1, 8]: 2.96
Doxorubicin.HCl assay [1, 9]: 1.850 mg/mL
pH [1, 9]: 2.93
K × 10^3 calculated ([1]; sterile water pH 3.0, 27° C., Arrhenius): 0.918 1/days
Kobs × 10^3 ([1]; sterile water pH 3.0, 27° C.): 0.850 1/days
pH ([1]; sterile water pH 3.0, 35° C., 0 days): 3.00
Doxorubicin.HCl assay [1, 10]: 1.985 mg/mL
pH [1, 10]: 2.96
Doxorubicin.HCl assay [1, 11]: 1.952 mg/mL
pH [1, 11]: 2.98
Doxorubicin.HCl assay [1, 12]: 1.889 mg/mL
pH [1, 12]: 2.93
pH ([1]; sterile water pH 3.0, 35° C., 28 days): 2.92
Doxorubicin.HCl assay [1, 13]: 1.876 mg/mL
pH [1, 13]: 2.92
Kobs × 10^3 ([1]; sterile water pH 3.0, 35° C.): 3.506 1/days
pH ([1]; sterile water pH 3.0, 45° C., 0 days): 3.00
Doxorubicin.HCl assay [1, 14]: 1.919 mg/mL
pH [1, 14]: 2.97
Doxorubicin.HCl assay [1, 15]: 1.851 mg/mL
pH [1, 15]: 2.95
pH ([1]; sterile water pH 3.0, 45° C., 14 days): 2.85
Doxorubicin.HCl assay [1, 16]: 1.393 mg/mL
pH [1, 16]: 2.90
pH ([1]; sterile water pH 3.0, 45° C., 32 days): 2.92
Kobs × 10^3 ([1]; sterile water pH 3.0, 45° C.): 12.790 1/days
pH ([1]; sterile water pH 3.0, 55° C., 0 days): 3.00
Doxorubicin.HCl assay [1, 17]: 1.760 mg/mL
pH [1, 17]: 2.94
pH ([1]; sterile water pH 3.0, 55° C., 8 days): 2.90
pH ([1]; sterile water pH 3.0, 55° C., 14 days): 2.80
Doxorubicin.HCl assay [1, 18]: 0.730 mg/mL
pH [1, 18]: 2.82
Kobs × 10^3 ([1]; sterile water pH 3.0, 55° C.): 49.340 1/days
pH range of maximum stability ([2]; 2 mg/ml, 55° C., all three media, ±0.2): 3.0-3.5
Kobs × 10^3 ([2]; 0.9% saline, Acetate pH 4.0, 55° C.): 215.7 1/days
Kobs × 10^3 ([2]; 0.9% saline, Acetate pH 5.0, 55° C.): 301.2 1/days
Kobs × 10^3 ([2]; 0.9% saline, Acetate pH 5.5, 55° C.): 430.3 1/days
Kobs × 10^3 ([2]; 0.9% saline, Formate pH 3.5, 55° C.): 148.1 1/days
Kobs × 10^3 ([2]; 0.9% saline, Glycine-HCl pH 2.0, 55° C.): 362.4 1/days
Kobs × 10^3 ([2]; 0.9% saline, Glycine-HCl pH 2.5, 55° C.): 276.5 1/days
Kobs × 10^3 ([2]; 0.9% saline, Glycine-HCl pH 3.0, 55° C.): 133.2 1/days
Doxorubicin.HCl % stability ([2]; 0.9% saline, pH 2.5 buffer, 55° C., 0 hours): 100.0%
Doxorubicin.HCl % stability ([2]; 0.9% saline, pH 2.5 buffer, 55° C., 16 hours): 85.8%
Doxorubicin.HCl % stability ([2]; 0.9% saline, pH 2.5 buffer, 55° C., 24 hours): 82.3%
Doxorubicin.HCl % stability ([2]; 0.9% saline, pH 2.5 buffer, 55° C., 34 hours): 70.3%
Doxorubicin.HCl % stability ([2]; 0.9% saline, pH 2.5 buffer, 55° C., 48 hours): 58.1%
Doxorubicin.HCl % stability ([2]; 0.9% saline, pH 3.0 buffer, 55° C., 0 hours): 100.0%
Doxorubicin.HCl % stability ([2]; 0.9% saline, pH 3.0 buffer, 55° C., 16 hours): 91.2%
Doxorubicin.HCl % stability ([2]; 0.9% saline, pH 3.0 buffer, 55° C., 24 hours): 88.8%
Doxorubicin.HCl % stability ([2]; 0.9% saline, pH 3.0 buffer, 55° C., 48 hours): 78.8%
Doxorubicin.HCl % stability ([2]; 0.9% saline, pH 3.0 buffer, 55° C., 72 hours): 69.0%
Doxorubicin.HCl % stability ([2]; 0.9% saline, pH 3.0 buffer, 55° C., 96 hours): 60.4%
Doxorubicin.HCl % stability ([2]; 0.9% saline, pH 3.0 buffer, 55° C., 120 hours): 50.3%
Doxorubicin.HCl % stability ([2]; 0.9% saline, pH 3.5 buffer, 55° C., 0 hours): 100.0%
Doxorubicin.HCl % stability ([2]; 0.9% saline, pH 3.5 buffer, 55° C., 16 hours): 91.4%
Doxorubicin.HCl % stability ([2]; 0.9% saline, pH 3.5 buffer, 55° C., 24 hours): 87.2%
Doxorubicin.HCl % stability ([2]; 0.9% saline, pH 3.5 buffer, 55° C., 48 hours): 77.3%
Doxorubicin.HCl % stability ([2]; 0.9% saline, pH 3.5 buffer, 55° C., 96 hours): 58.9%
Doxorubicin.HCl % stability ([2]; 0.9% saline, pH 3.5 buffer, 55° C., 120 hours): 46.0%
Kobs × 10^3 ([2]; 5% dextrose, Acetate pH 4.0, 55° C.): 209.7 1/days
Kobs × 10^3 ([2]; 5% dextrose, Acetate pH 5.0, 55° C.): 273.1 1/days
Kobs × 10^3 ([2]; 5% dextrose, Acetate pH 5.5, 55° C.): 453.7 1/days
Kobs × 10^3 ([2]; 5% dextrose, Formate pH 3.5, 55° C.): 132.0 1/days
Kobs × 10^3 ([2]; 5% dextrose, Glycine-HCl pH 2.0, 55° C.): 323.8 1/days
Kobs × 10^3 ([2]; 5% dextrose, Glycine-HCl pH 2.5, 55° C.): 138.7 1/days
Kobs × 10^3 ([2]; 5% dextrose, Glycine-HCl pH 3.0, 55° C.): 100.5 1/days
Doxorubicin.HCl % stability ([2]; 5% dextrose, pH 2.0 buffer, 55° C., 0 hours): 100.0%
Doxorubicin.HCl % stability ([2]; 5% dextrose, pH 2.0 buffer, 55° C., 8 hours): 92.8%
Doxorubicin.HCl % stability ([2]; 5% dextrose, pH 2.0 buffer, 55° C., 16 hours): 84.4%
